Data: patent US20240262833A1, “FUSED HETEROCYCLIC DERIVATIVES AS NEGATIVE ALLOSTERIC MODULATORS OF MGLU7 RECEPTOR” (Addex Pharma S.A., priority 2021, published 2024)

Target: T1, human metabotropic glutamate 7 receptor (hmGlu7) (Homo sapiens, UniProt Q14831)
T1 construct: expressed in transfected cells
Experiment: mGlu7 assay on HEK-expressing human mGlu7: fluorescent cell based Ca2+ mobilization assay (FLIPR), inhibition of EC80 L-AP4 response
Details: HEK-293 cells expressing hmGlu7; EC80 L-AP4 stimulation; mean of at least three independent experiments in duplicate; read-out: Ca2+ Flux (mean IC50)
Method in brief: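 HEK293 cells stably expressing hmGlu7 with a calcium-redirecting G protein were Fluo4-AM-loaded and assayed at pH 7.4 in HEPES buffer. Compounds were monitored for 180 s for agonism, then cells were challenged with EC80 L-AP4 for 110 s. IC50 was obtained from four-parameter fits, as the mean of ≥3 experiments run in duplicate.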

T1 sequence (Q14831 35-922 isoform Q14831-2): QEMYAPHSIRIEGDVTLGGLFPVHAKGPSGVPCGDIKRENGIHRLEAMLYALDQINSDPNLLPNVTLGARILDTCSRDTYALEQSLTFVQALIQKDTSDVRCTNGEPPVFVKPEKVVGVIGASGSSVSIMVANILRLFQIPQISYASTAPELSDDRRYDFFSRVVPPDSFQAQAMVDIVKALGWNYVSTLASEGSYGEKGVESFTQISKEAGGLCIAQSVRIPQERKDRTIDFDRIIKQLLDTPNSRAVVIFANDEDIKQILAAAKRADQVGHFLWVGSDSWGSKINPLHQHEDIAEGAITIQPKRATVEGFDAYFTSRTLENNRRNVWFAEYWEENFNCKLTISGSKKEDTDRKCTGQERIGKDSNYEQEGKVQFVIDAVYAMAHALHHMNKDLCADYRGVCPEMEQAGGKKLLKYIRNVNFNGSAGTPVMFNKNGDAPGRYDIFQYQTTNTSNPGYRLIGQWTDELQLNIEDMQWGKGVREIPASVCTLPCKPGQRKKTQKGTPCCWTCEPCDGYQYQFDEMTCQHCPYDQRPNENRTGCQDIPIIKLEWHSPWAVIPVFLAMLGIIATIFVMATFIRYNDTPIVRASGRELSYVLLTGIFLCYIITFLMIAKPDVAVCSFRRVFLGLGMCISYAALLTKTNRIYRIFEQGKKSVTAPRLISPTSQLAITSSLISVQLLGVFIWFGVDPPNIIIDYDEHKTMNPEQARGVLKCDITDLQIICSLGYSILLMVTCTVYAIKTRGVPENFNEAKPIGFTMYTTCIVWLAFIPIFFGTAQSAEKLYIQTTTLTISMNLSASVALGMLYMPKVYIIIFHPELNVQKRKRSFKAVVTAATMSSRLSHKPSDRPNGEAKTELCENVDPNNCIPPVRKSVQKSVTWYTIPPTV

IC50 [nM]	Compound
100 to 1000	COc1cccc(-n2c(C)c3cnn(-c4ccc(O)nc4)c(=O)c3c2C)c1 [1-131, 2-(6-Hydroxypyridin-3-yl)-6-(3-methoxyphenyl)-5,7-dimethyl-2,6-dihydro-1H-pyrrolo[3,4-d]pyridazin-1-one]
100 to 1000	CC(=O)c1cccc(-n2c(C)c3cnn(-c4ccccc4)c(=O)c3c2C)c1 [1-36, 6-(3-Acetylphenyl)-5,7-dimethyl-2-phenyl-2,6-dihydro-1H-pyrrolo [3,4-d]pyridazin-1-one]
100 to 1000	COc1ccccc1-n1ncc2c(C)n(-c3ccc(C)cc3)c(C)c2c1=O [1-2, 2-(2-Methoxyphenyl)-5,7-dimethyl-6-p-tolyl-2,6-dihydro-1H-pyrrolo[3,4-d]pyridazin-1-one]
100 to 1000	Cc1c2cnn(-c3ncccn3)c(=O)c2c(C)n1-c1cccc(N2CCC2)c1 [1-223]
100 to 1000	Cc1c2cnn(-c3ccc(C#N)cc3)c(=O)c2c(C)n1-c1ccccc1 [1-17]
100 to 1000	Cc1c2cnn(-c3ccccn3)c(=O)c2c(C)n1-c1cccc(OC(C)C)c1 [1-139]
100 to 1000	COc1cccc(-n2c(C)c3cnn(-c4ncccn4)c(=O)c3c2C)c1Cl [1-203]
100 to 1000	Cc1c2cnn(-c3ncc(F)cn3)c(=O)c2c(C)n1-c1cc(N2CCC2)ccc1F [1-218]
100 to 1000	COc1ccc(-n2ncc3c(C)n(-c4ccccc4)c(C)c3c2=O)cc1 [1-13, 2-(4-Methoxyphenyl)-5,7-dimethyl-6-phenyl-2,6-dihydro-1H-pyrrolo[3,4-d]pyridazin-1-one]
< 100	Cc1c2cnn(-c3ccc(F)cn3)c(=O)c2c(C)n1-c1cccc(N2CCC2)c1 [1-173]
< 100	Cc1c2cnn(-c3ccccn3)c(=O)c2c(C)n1-c1cccc(N2CCC2)c1 [1-102, 6-(3-(Azetidin-1-yl)phenyl)-5,7-dimethyl-2-(pyridin-2-yl)-2,6-dihydro-1H-pyrrolo[3,4-d]pyridazin-1-one]
1000 to 10000	COc1cc(-n2c(C)c3cnn(-c4ccccn4)c(=O)c3c2C)ccn1 [1-62]
100 to 1000	COc1cccc(-n2c(C)c3cnn(-c4cc[nH]c(=O)c4)c(=O)c3c2C)c1 [1-129]
100 to 1000	Cc1c2cnn(-c3ccccc3)c(=O)c2c(C)n1-c1ccccc1F [1-29]
< 100	Cc1c2cnn(-c3cccc(S(C)(=O)=O)c3)c(=O)c2c(C)n1-c1cccc(N2CCC2)c1 [1-151]
100 to 1000	CCc1ccc(-n2c(C)c3cnn(-c4ccccn4)c(=O)c3c2C)cc1 [1-86]
< 100	Cc1ccc(-n2ncc3c(C)n(-c4cccc(N5CCC5)c4)c(C)c3c2=O)nc1 [1-155]
100 to 1000	Cc1ccccc1-n1c(C)c2cnn(-c3ccccc3)c(=O)c2c1C [1-7]
100 to 1000	COc1ccc(-n2c(C)c3cnn(-c4ccc(CO)cc4)c(=O)c3c2C)cc1 [1-98]
100 to 1000	COc1cccc(-n2c(C)c3cnn(-c4ccc(OC)nc4)c(=O)c3c2C)c1 [1-127]
< 100	COc1cccc(-n2c(C)c3cnn(-c4ccnc(OC)c4)c(=O)c3c2C)c1 [1-121]
100 to 1000	COc1cccc(-n2c(C)c3cnn(-c4ncc(C)cn4)c(=O)c3c2C)c1Cl [1-204]
< 100	COc1cc(-n2ncc3c(C)n(-c4cccc(N5CCC5)c4)c(C)c3c2=O)ccc1CO [1-166]
100 to 1000	COc1ccccc1-n1c(C)c2cnn(-c3ccccc3)c(=O)c2c1C [1-18]
< 100	Cc1c2cnn(-c3ccccc3)c(=O)c2c(C)n1-c1cccc(N2CCC2)c1 [1-141]
< 100	Cc1c2cnn(-c3ccc(F)cc3)c(=O)c2c(C)n1-c1ccccc1 [1-11]

IC50 [nM]	Compound
100 to 1000	Cc1c2cnn(-c3cccc(C(N)=O)c3)c(=O)c2c(C)n1-c1cccc(N2CCC2)c1 [1-152]
100 to 1000	COc1ccc(-n2c(C)c3cnn(-c4ccc(OC)cc4)c(=O)c3c2C)cc1 [1-103]
100 to 1000	Cc1cccc(-n2c(C)c3cnn(-c4ccccn4)c(=O)c3c2C)c1 [1-45]
100 to 1000	Cc1c2cnn(-c3ccc(S(C)(=O)=O)cc3)c(=O)c2c(C)n1-c1ccccc1 [1-30]
100 to 1000	Cc1c2cnn(-c3ccc(S(N)(=O)=O)cc3)c(=O)c2c(C)n1-c1cccc(N2CCOCC2)c1 [1-68]
< 100	Cc1c2cnn(-c3ncccn3)c(=O)c2c(C)n1-c1cccc(OC2CC2)c1F [1-236]
1000 to 10000	Cc1c2cnn(-c3ccccn3)c(=O)c2c(C)n1-c1cccc(C#N)c1 [1-54]
100 to 1000	Cc1c2cnn(-c3ccc(CO)cc3)c(=O)c2c(C)n1-c1ccccc1 [1-92]
100 to 1000	COc1cccc(-n2c(C)c3cnn(-c4ccc5ccccc5n4)c(=O)c3c2C)c1 [1-61]
< 100	Cc1c2cnn(-c3ccc(N4CCNCC4)cc3)c(=O)c2c(C)n1-c1cccc(N2CCC2)c1 [1-174]
100 to 1000	Cc1c2cnn(-c3ccc(N4CCCC4)cc3)c(=O)c2c(C)n1-c1cccc(N2CCC2)c1 [1-168, 6-(3-(Azetidin-1-yl)phenyl)-5,7-dimethyl-2-(4-(pyrrolidin-1-yl)phenyl)-2,6-dihydro-1H-pyrrolo[3,4-d]pyridazin-1-one]
100 to 1000	COc1cccc(-n2c(C)c3cnn(-c4cncc(OC)c4)c(=O)c3c2C)c1 [1-94]
1000 to 10000	COc1cc(F)ccc1-n1c(C)c2cnn(-c3ccccn3)c(=O)c2c1C [1-191]
< 100	COc1cccc(-n2c(C)c3cnn(-c4ccc(CNC(C)=O)cc4)c(=O)c3c2C)c1 [1-65]
< 100	COCCOc1ccc(-n2ncc3c(C)n(-c4cccc(N5CCC5)c4)c(C)c3c2=O)cc1 [1-162]
< 100	COc1cccc(-n2ncc3c(C)n(-c4ccccc4)c(C)c3c2=O)c1 [1-12]
1000 to 10000	COCCNc1ccc(-n2c(C)c3cnn(-c4ccccc4)c(=O)c3c2C)cc1 [1-42]
100 to 1000	COC(=O)c1ccc(-n2ncc3c(C)n(-c4cccc(OC)c4)c(C)c3c2=O)cc1OC [1-105]
< 100	COc1cccc(-n2c(C)c3cnn(-c4ccc(S(C)(=O)=O)cc4)c(=O)c3c2C)c1 [1-119]
100 to 1000	COc1cccc(-n2c(C)c3cnn(-c4ccccc4OC)c(=O)c3c2C)c1 [1-148]
100 to 1000	Cc1c2cnn(-c3ccccn3)c(=O)c2c(C)n1-c1cccc(C(F)(F)F)c1 [1-53]
100 to 1000	Cc1c2cnn(-c3ccccn3)c(=O)c2c(C)n1-c1cccc(N(C)C)c1 [1-110]
100 to 1000	COc1ccc(-n2c(C)c3cnn(-c4ccccn4)c(=O)c3c2C)cc1 [1-47]
< 100	Cc1c2cnn(-c3ncccc3F)c(=O)c2c(C)n1-c1cc(N2CCC2)ccc1F [1-217]
1000 to 10000	Cc1c(O)cccc1-n1c(C)c2cnn(-c3ccc(N4CCOCC4)cc3)c(=O)c2c1C [1-220]
< 100	Cc1c2cnn(-c3ccc(N4CCNC(=O)C4)cc3)c(=O)c2c(C)n1-c1cccc(N2CCC2)c1 [1-178]

IC50 [nM]	Compound
100 to 1000	COc1cccc(-n2c(C)c3cnn(-c4cncnc4)c(=O)c3c2C)c1 [1-95]
< 100	Cc1ccc(-n2ncc3c(C)n(-c4ccccc4)c(C)c3c2=O)cc1 [1-15]
100 to 1000	Cc1c2cnn(-c3cccnc3)c(=O)c2c(C)n1-c1ccccc1 [1-9]
100 to 1000	Cc1c2cnn(-c3ccccn3)c(=O)c2c(C)n1-c1ccc(Cl)cc1 [1-3]
< 100	COc1ccc(-n2ncc3c(C)n(-c4cccc(N5CCC5)c4)c(C)c3c2=O)cc1CO [1-163]
< 100	COCc1cccc(-n2ncc3c(C)n(-c4cccc(OC)c4)c(C)c3c2=O)c1 [1-116]
100 to 1000	Cc1c(OC(F)F)cccc1-n1c(C)c2cnn(-c3ccccn3)c(=O)c2c1C [1-232]
< 100	Cc1c2cnn(-c3ccccn3)c(=O)c2c(C)n1-c1cccc(N2CCCC2)c1 [1-59]
100 to 1000	Cc1c2cnn(-c3ccccn3)c(=O)c2c(C)n1-c1cccc(C2CC2)c1 [1-137]
< 100	CC(=O)c1ccc(-n2c(C)c3cnn(-c4ccccc4)c(=O)c3c2C)cc1 [1-31]
100 to 1000	COc1cccc(-n2c(C)c3cnn(-c4cccc(C(=O)N(C)C)c4)c(=O)c3c2C)c1 [1-112]
100 to 1000	Cc1c2cnn(-c3ccc(C(N)=O)cc3)c(=O)c2c(C)n1-c1ccccc1 [1-57]
100 to 1000	Cc1c2cnn(-c3cccc(N4CCOCC4)c3)c(=O)c2c(C)n1-c1cccc(N2CCC2)c1 [1-167]
100 to 1000	Cc1c2cnn(C3CCCC3)c(=O)c2c(C)n1-c1cccc(N2CCC2)c1 [1-190]
100 to 1000	COc1cccc(-n2c(C)c3cnn(-c4ncccn4)c(=O)c3c2C)c1F [1-234]
< 100	COc1cccc(-n2c(C)c3cnn(-c4ccc(C(C)(C)O)cn4)c(=O)c3c2C)c1 [1-216]
< 100	COc1cccc(-n2c(C)c3cnn(-c4ccc(CCCO)cc4)c(=O)c3c2C)c1 [1-118]
100 to 1000	Cc1c2cnn(-c3ccccc3)c(=O)c2c(C)n1-c1cccc(N2CCCC2=O)c1 [1-49]
< 100	Cc1cnc(-n2ncc3c(C)n(-c4cccc(N5CCC5)c4)c(C)c3c2=O)nc1 [1-228]
100 to 1000	COc1ccc(-n2c(C)c3cnn(-c4cccc(C#N)c4)c(=O)c3c2C)cc1 [1-125]
100 to 1000	CCc1c2c(=O)n(-c3ccccc3)ncc2c(C)n1-c1cccc(OC)c1 [1-89]
100 to 1000	COc1cccc(-n2c(C)c3cnn(-c4cccc(C#N)c4)c(=O)c3c2C)c1 [1-124]
< 100	Cc1ccnc(-n2ncc3c(C)n(-c4cccc(N5CCC5)c4)c(C)c3c2=O)c1 [1-161]
100 to 1000	Cc1c2cnn(-c3ccccc3)c(=O)c2c(C)n1-c1ccc(N(C)C)cc1 [1-23]
< 100	COc1cccc(-n2c(C)c3cnn(-c4cccc(CC#N)c4)c(=O)c3c2C)c1 [1-146]
100 to 1000	COc1cccc(-n2c(C)c3cnn(-c4ccc(C(=O)N(C)C)cc4)c(=O)c3c2C)c1 [1-75]

Tested on: not given
Experiment: not given
Details: not given

melting point [°C]	Compound
207 to 209	COc1cccc(-n2c(C)c3cnn(-c4ccc(O)nc4)c(=O)c3c2C)c1 [1-131, 2-(6-Hydroxypyridin-3-yl)-6-(3-methoxyphenyl)-5,7-dimethyl-2,6-dihydro-1H-pyrrolo[3,4-d]pyridazin-1-one]
202 to 204	CC(=O)c1cccc(-n2c(C)c3cnn(-c4ccccc4)c(=O)c3c2C)c1 [1-36, 6-(3-Acetylphenyl)-5,7-dimethyl-2-phenyl-2,6-dihydro-1H-pyrrolo [3,4-d]pyridazin-1-one]
202	COc1ccccc1-n1ncc2c(C)n(-c3ccc(C)cc3)c(C)c2c1=O [1-2, 2-(2-Methoxyphenyl)-5,7-dimethyl-6-p-tolyl-2,6-dihydro-1H-pyrrolo[3,4-d]pyridazin-1-one]
